Experimental data: US9775902B2, “Compounds and methods for treatment of stroke” (FIBROGEN, INC, priority 2006, dated 2017)
Values joined by “and” are separate entries in the source; they are usually repeats but may differ in a detail not shown here. Equal values may be shown once.

Test system: vascular endothelial growth factor (VEGF)
Test: Brain VEGF gene expression in mice after intravenous injection
Format: in vivo, Swiss Webster mice
Conditions: 20 mg/kg i.v., four hours, quantitative real time PCR normalized to 18s RNA
Method: The effect of compounds of the present invention on regulation of cytoprotective and neuroprotective gene expression in brain was evaluated. In one series of experiments, male Swiss Webster mice were administered by intravenous injection various compounds of the present invention. Animals treated by intravenous injection received a 6 ml/kg volume of either 5% Dextrose with an equimolar amount of Meglumine (vehicle control) or 20 mg/kg of a compound of the present invention in 5% dextrose with an equimolar amount of Meglumine Animals were euthanized four hours later and their brains placed in RNAlater (Ambion, Austin Tex.) for subsequent analysis. Tissues were homogenized in Trizol (Invitrogen, Carlsbad Calif.) using 5-mm steel beads in a Mixer Mill (Qiagen, Valencia Calif.). RNA was isolated from the Trizol solution and then further purified using RNeasy kit (Qiagen). cDNA was prepared from […] total RNA using Omniscript reverse transcriptase (Qiagen) and random hexamers. Quantitative real time PCR was performed in a 7900HT instrument (Applied Biosystems, Foster City Calif.) using TaqMan Assays-on-Demand (Applied Biosystems). Gene expression levels were normalized to that of 18s RNA.

Structure (SMILES): O=C(O)CNC(=O)c1nc(Oc2ccccc2F)c2ccccc2c1O [Compound Z, {[1-(2-Fluoro-phenoxy)-4-hydroxy-isoquinoline-3-carbonyl]-amino}-acetic acid]
- VEGF gene expression in brain (20 mg/kg): 2.2 and 2.1

Structure (SMILES): Cc1nc(C(=O)NCC(=O)O)c(O)c2cc(Oc3ccccc3)ccc12 [Compound AA, [(4-Hydroxy-1-methyl-6-phenoxy-isoquinoline-3-carbonyl)-amino]-acetic acid]
- VEGF gene expression in brain: 2.1
